Measurements reported in patent US9629855B2, “Pharmaceutical composition for treatment of eye pain, containing PGE2 synthesis inhibitor” (INDUSTRY-ACADEMIC COOPERATION FOUNDATION, YONSEI UNIVERSITY, priority 2011, dated 2017).

System: patients having an ocular pain symptom
Assay: Number of eye blinks after intraocular administration of PGE2 synthesis inhibitors to eye pain patients
Format: in vivo, human
Details: blinks for 5 min
Experimental: PGE2 synthesis inhibitors were administered intraocularly to patients having an ocular pain symptom, and whether the number of eye blinks of the patient group was reduced compared to that of a control group was examined. The PGE2 synthesis inhibitors used were 15-deoxy-Δ^12,14-PGJ2, exisulind, NS-398, leukotriene C4, mk-886, analogues of MK-886, MF63, thienopyrrole, naphthalene disulphonamide, resveratrol, and γ-hydroxybutenolide.
As a result, it was shown that, when the PGE synthesis inhibitors were administered intraocularly, they reduced ocular discomfort to thereby reduce the number of eye blinks (Table 2).

Point of comparison: `CC1=C(CC(=O)O)c2cc(F)ccc2/C1=C\c1ccc(S(C)(=O)=O)cc1` [Exisulind], “Number of eye blinks of treated group (n = 10) for 5 min” value 14. Against it:
- CCCCC/C=C/C=C1/C(=O)C=C[C@@H]1C/C=C\CCCC(=O)O [15-deoxy-Δ^12,14-PGJ2] — lower, 11
- CS(=O)(=O)Nc1ccc([N+](=O)[O-])cc1OC1CCCCC1 [NS-398] — lower, 13
- CC(C)c1ccc2c(c1)c(SC(C)(C)C)c(CC(C)(C)C(=O)O)n2Cc1ccc(Cl)cc1 [mk-886] — higher, 15
- Oc1ccc(C=Cc2cc(O)cc(O)c2)cc1 [Resveratrol] — higher, 17
- c1cc2sccc2[nH]1 [Thienopyrrole] — lower, 13
- CCCCC/C=C\C\C=C/C=C/C=C/[C@@H](SC[C@H](NC(=O)CC[C@H](N)C(=O)O)C(=O)NCC(=O)O)[C@@H](O)CCCC(=O)O [Leukotriene C4] — higher, 17

System: patients having an ocular pain symptom
Assay: Number of eye blinks after intraocular administration of selective COX2 inhibitors to ocular pain patients
Format: in vivo, human
Details: control group = Diclofenac

Point of comparison: `Cc1cnc(NC(=O)C2=C(O)c3ccccc3S(=O)(=O)N2C)s1` [Meloxicam], “Number of eye blinks of treated group (n = 3)” value 20. Against it:
- CS(=O)(=O)Nc1ccc([N+](=O)[O-])cc1Oc1ccccc1 [Nimesulud] — lower, 16
- CCN1CC/C(=C\c2cc(C(C)(C)C)c(O)c(C(C)(C)C)c2)S1(=O)=O [S-2474, 3,5-di-tert-buryl-4-hydroxybenzylidene] — lower, 15
